B1: NT-3: Neurotrophin-3, binds to TRKC; used to promote differentiation of proprioceptors (protein, UniProt P20783 139-257, looked up)
Neurotrophin-3: YAEHKSHRGEYSVCDSESLWVTDKSSAIDIRGHQVTVLGEIKTGNSPVKQYFYETRCKEARPVKNGCRGIDDKHWNSQCKTSQTYVRALTSENNKLVGWRWIRIDTSCVCALSRKIGRT

test system: SNs differentiated from NCCs replated on day 12; assay: SN subtype enrichment with growth factors, TRKA/TRKB/TRKC quantified by flow cytometry (FACS) on day 20; format: cell-based, human; settings: NCCs replated day 12 in SN differentiation media containing GDNF and the indicated growth factor; FACS analysis on day 20; FIG. 7B
Source text: FIGS. 7A-7G illustrates strategies for SN subtype enrichment (related to FIGS. 3A-3F). FIG. 7A is a schematic of an initial approach. On day 12 of differentiation, NCCs were replated using SN differentiation media containing GDNF and the indicated growth factors and analyzed by flow cytometry. FIG. 7B is a bar graph showing quantification of SNs differentiated using enrichment media as indicated on 7A. SNs were stained with TRKA, TRKB and TRKC antibodies and quantified by flow cytometry. DAPI was used as viability dye. FIGS. 7C-7F are a series of scatter plots showing identification (7C) of subpopulation of noci- (7D), mechano- (7E), and proprioceptor (7F) enrichment by flow cytometry. Side scatter and forward scatter showing gated areas where each subtype is enriched and the percentages of each subpopulation are shown. FIG. 7G is a bar graph showing NGN2 and NGN1 waves are present during SN differentiation. RNA from SN-biased NCCs was obtained on each indicated day and NGN1 and NGN2 expression was measured by RT-qPCR. In all experiments N>4. Graphs show mean±S.D.
Cells were dissociated with Accutase for 20 min and then washed in Flow buffer: DMEM 2% FBS and 1 mM L-glutamine. Cells were centrifuged at 200 g for 4 min and resuspended in cold PBS, they were counted and diluted to a concentration of 1×10^6 cells/100 μL and incubated for 20 min (CD49d) or 1 h (TRKA, B and C) with conjugated antibody. Cells were then washed twice in Flow buffer, and incubated with DAPI (1:1,000) in 300 μL of Flow buffer for 5 mins. Cells were filtered and transferred to a 96-well plate. Samples were run using a Cytoflex S (Beckman). All subsequent analysis was done using FlowJo.
Contrary to previous reports (Alshawaf, et al., Scientific Reports 8, 603 (2018), Chambers, et al., Nat. Biotechnol. 30, 715-720 (2012), Schrenk-Siemens, et al., Nat. Neurosci. 18, 10-550 16 (2015)), the investigated protocol generates all three SN subtypes (FIG. 1H, 1I). Thus, methods to enrich distinct SN subtypes from bulk cultures were investigated. […]

Molecule	SN subtype enrichment (TRKA, TRKB, TRKC by FACS)
BDNF: Brain-derived neurotrophic factor, binds to TRKB; used to promote differentiation of mechanoreceptors	no subtype enrichment
NGF: Nerve growth factor, binds to TRKA; used to promote differentiation of nociceptors	no subtype enrichment
B1	no subtype enrichment

test system: hESC-derived SNs; assay: Multi-electrode array (MEA) recording of SN firing after incubation with nociceptor agonists; format: cell-based, human; settings: titrated, incubated for 1 min before data acquisition; 5 min recordings; normalized to untreated control (basal); FIG. 2K
Protocol: Experiments were performed using a Maestro Pro (Axion Biosystems) MEA system. CytoView MEA 96 plates containing 8 embedded electrodes/well were coated with PO/LM/FN 448 and seeded with NCCs (day 6 or 12) or SNs (day 30). Repeated recordings were made every 5 days at 37° C. with a sampling frequency of 12.5 kHz for 5 min. Recordings from at least 6 wells were averaged per reading. Bursts were detected using Inter-Spike Interval (ISI). Capsaicin, WIN 55,212 and Pregnenolone were titrated and incubated for 1 min before data acquisition. Hypoosomotic media was obtained by mixing Sensory neuron media with sterile water in a 45:55 ratio, treatment was done for 1 min.

Molecule	firing rate of SNs (MEA)
COc1cc(CNC(=O)CCCC/C=C/C(C)C)ccc1O [capsaicin]	increased firing rate
Cc1c(C(=O)c2cccc3ccccc23)c2cccc3c2n1[C@H](CN1CCOCC1)CO3 [WIN 55, 212-2]	increased firing rate
CC(=O)[C@H]1CC[C@H]2[C@@H]3CC=C4C[C@@H](O)CC[C@]4(C)[C@H]3CC[C@]12C [pregnenolone]	increased firing rate
